Values joined by “and” are separate entries in the source; they are usually repeats but may differ in a detail not shown here. Equal entries are not always repeated. Toxic doses and inconclusive results are not listed.
Tested on: P335 leukemia ip, BDF1 mice, survival T/C %
Assay: NCI In Vivo Anticancer Drug Screen. Data for tumor model P335 Leukemia (intraperitoneal) in B6D2F1 (BDF1) mice
Conditions: endpoint: mean survival time, higher = longer survival
Procedure: The antitumor activity of compounds was measured in mice bearing transplantable tumors. Survival or tumor size were measured and the results are expressed as the measurement made in the treated group (T) divided by the measurement made in the vehicle treated control group (C). The tumor model used in this assay is P335 Leukemia (intraperitoneal) in B6D2F1 (BDF1) mice

[1] = dose: 0.25 mg/kg/injection, schedule: Q01DX Z (ip), vehicle: carboxymethylcellulose (CMC)
[2] = dose: 0.5 mg/kg/injection, schedule: Q01DX Z (ip), vehicle: carboxymethylcellulose (CMC)

C[C@H](N)C(=O)N[C@@H]1[C@H]2C(=C(O)C[C@@H](O)[C@@H]2O)C(=O)O[C@@H]1C
T/C (dose: 23.43 mg/kg/injection, schedule: Q01DX Z (ip), vehicle: saline): 114 % of control
T/C (dose: 187.5 mg/kg/injection, schedule: Q01DX Z (ip), vehicle: saline): 168 % of control
T/C (dose: 375.0 mg/kg/injection, schedule: Q01DX Z (ip), vehicle: saline): 151 % of control and 182 % of control
T/C (dose: 750.0 mg/kg/injection, schedule: Q01DX Z (ip), vehicle: saline): 191 % of control

CN(Cc1cnc2nc(N)nc(N)c2n1)c1c(Cl)cc(C(=O)NC(CCC(=O)O)C(=O)O)cc1Cl (stereo unspecified)
T/C (dose: 25.0 mg/kg/injection, schedule: Q01DX Z (ip), vehicle: carboxymethylcellulose (CMC)): 104 % of control and 121 % of control

CC[C@@H](c1ccc(O)cc1)[C@@H](CC)c1ccc(O)cc1
T/C (dose: 16.0 mg/kg/injection, schedule: Q01DX Z (sc), vehicle: steriod suspending solution): 96 % of control
T/C (dose: 31.25 mg/kg/injection, schedule: Q01DX Z (sc), vehicle: steriod suspending solution): 93 % of control
T/C (dose: 125.0 mg/kg/injection, schedule: Q01DX Z (sc), vehicle: steriod suspending solution): 96 % of control
T/C (dose: 500.0 mg/kg/injection, schedule: Q01DX Z (sc), vehicle: steriod suspending solution): 104 % of control
T/C (dose: 1000.0 mg/kg/injection, schedule: Q01DX Z (sc), vehicle: steriod suspending solution): 95 % of control

CC(=O)Nc1ccc2nc3ccc(NC(C)=O)cc3[n+](-c3ccccc3)c2c1
T/C (dose: 12.5 mg/kg/injection, schedule: Q01DX Z (ip), vehicle: carboxymethylcellulose (CMC)): 98 % of control

COC12C(COC(N)=O)C3=C(C(=O)C(C)=C(N)C3=O)N1CC1C2N1C (stereo unspecified)
T/C (dose: 0.63 mg/kg/injection, schedule: Q01DX Z (ip), vehicle: carboxymethylcellulose (CMC)): 110 % of control
T/C (dose: 5.0 mg/kg/injection, schedule: Q01DX Z (ip), vehicle: carboxymethylcellulose (CMC)): 160 % of control and 168 % of control

Nc1nc(=S)c2[nH]cnc2[nH]1
T/C (dose: 0.12 mg/kg/injection, schedule: Q01DX Z (ip), vehicle: carboxymethylcellulose (CMC)): 92 % of control
T/C [1]: 95 % of control
T/C [2]: 95 % of control
T/C (dose: 1.0 mg/kg/injection, schedule: Q01DX Z (ip), vehicle: carboxymethylcellulose (CMC)): 101 % of control
T/C (dose: 2.0 mg/kg/injection, schedule: Q01DX Z (ip), vehicle: carboxymethylcellulose (CMC)): 95 % of control

Cn1c(N)nc2nc[nH]c2c1=S
T/C (dose: 1.6 mg/kg/injection, schedule: Q01DX Z (ip), vehicle: carboxymethylcellulose (CMC)): 94 % of control
T/C (dose: 3.1 mg/kg/injection, schedule: Q01DX Z (ip), vehicle: carboxymethylcellulose (CMC)): 94 % of control
T/C (dose: 6.3 mg/kg/injection, schedule: Q01DX Z (ip), vehicle: carboxymethylcellulose (CMC)): 92 % of control

NC(=O)c1cn(C2OC(CO)C(O)C2O)c2ncnc(N)c12 (stereo unspecified)
T/C [1]: 101 % of control
T/C [2]: 86 % of control
T/C (dose: 16.0 micrograms/kg/injection, schedule: Q01DX Z (ip), vehicle: carboxymethylcellulose (CMC)): 110 % of control
T/C (dose: 31.0 micrograms/kg/injection, schedule: Q01DX Z (ip), vehicle: carboxymethylcellulose (CMC)): 104 % of control
T/C (dose: 63.0 micrograms/kg/injection, schedule: Q01DX Z (ip), vehicle: carboxymethylcellulose (CMC)): 105 % of control

c1ccc(CNc2ncnc3[nH]ncc23)cc1
T/C (dose: 4.0 mg/kg/injection, schedule: Q01DX Z (ip), vehicle: carboxymethylcellulose (CMC)): 89 % of control
T/C (dose: 8.0 mg/kg/injection, schedule: Q01DX Z (ip), vehicle: carboxymethylcellulose (CMC)): 90 % of control
T/C (dose: 16.0 mg/kg/injection, schedule: Q01DX Z (ip), vehicle: carboxymethylcellulose (CMC)): 95 % of control
T/C (dose: 31.25 mg/kg/injection, schedule: Q01DX Z (ip), vehicle: carboxymethylcellulose (CMC)): 101 % of control

O=C1CCC(N2C(=O)c3ccccc3C2=O)C(=O)N1 (stereo unspecified)
T/C (dose: 9.4 mg/kg/injection, schedule: Q01DX Z (ip), vehicle: carboxymethylcellulose (CMC)): 92 % of control
T/C (dose: 18.75 mg/kg/injection, schedule: Q01DX Z (ip), vehicle: carboxymethylcellulose (CMC)): 86 % of control and 97 % of control
T/C (dose: 37.5 mg/kg/injection, schedule: Q01DX Z (ip), vehicle: carboxymethylcellulose (CMC)): 88 % of control and 90 % of control and 119 % of control
T/C (dose: 75.0 mg/kg/injection, schedule: Q01DX Z (ip), vehicle: carboxymethylcellulose (CMC)): 100 % of control and 102 % of control
T/C (dose: 150.0 mg/kg/injection, schedule: Q01DX Z (ip), vehicle: carboxymethylcellulose (CMC)): 88 % of control and 98 % of control
T/C (dose: 300.0 mg/kg/injection, schedule: Q01DX Z (ip), vehicle: carboxymethylcellulose (CMC)): 86 % of control
